Assay in all cases: NCI-60 cell line screen, 48 h
Assay [1] deals with HL-60(TB) leukemia.
Assay [2] has as its system HOP-62 NSCLC.
In assay [3] the test system is IGROV1 ovarian.
Assay [4] relates to OVCAR-8 ovarian.
The subject of assay [5] is RPMI-8226 leukemia.
The subject of assay [6] is RXF 393 renal.
The subject of assay [7] is SK-MEL-2 melanoma.
Assay [8] has as its system SW-620 colon.
In assay [9] the test system is UACC-257 melanoma.
Assay [10] has as its system SK-MEL-5 melanoma.

We go through 11 compounds from PubChem BioAssay (NCI).

SMILES strings stand for the structures.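 Dose response: 5 concentrations. Exposure: 48 h. Format: 96-well plates. Endpoint: linear interpolation; highest concentration if not reached. GI50 is the concentration that inhibits growth by half. TGI is the concentration that stops growth completely.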 Where only a bound is given, the exact number is not on record here.

With `O=C(O)c1ccccc1NCn1c(=S)sc2ccccc21`, the TGI in assay [1] was 38 µM; in assay [2], greater than 100 µM; in [3], greater than 100 µM; in [4], greater than 100 µM; in assay [5], 95.4 µM; in [6], greater than 100 µM. For the same compound, the TGI in assay [7], in assay [8] and in assay [9] was greater than 100 µM throughout.

Consider `N#CCc1cccc(CC#N)c1Br`, for which the TGI in [1] was greater than 100 µM; in [2], greater than 100 µM; in [3], greater than 100 µM; in [4], greater than 100 µM; in assay [5], greater than 100 µM; in assay [6], 93.7 µM. For the same compound, the TGI in assay [7], in [8] and in assay [9] was greater than 100 µM in each case.

Regarding `COc1ccc(-c2c(N)noc2-c2cc(OC)c3c(c2)OCCO3)cc1`, the GI50 in [1] is 0.0102 µM; in assay [2] it was less than 0.0123 µM; in assay [3], 0.0177 µM; in assay [4] it was 0.0212 µM; in assay [5], 0.0333 µM; in assay [6], less than 0.01 µM. Besides, the GI50 in assay [7], in [10] and in assay [8] was less than 0.01 µM throughout. The TGI in assay [1] was 0.0434 µM; in assay [2], greater than 54.8 µM; in [3] it was greater than 73.3 µM; in assay [4] it was greater than 33.2 µM; in assay [5] it was 17.9 µM; in [6], 0.0467 µM. The TGI in [7] was 67.5 µM; in assay [10] it was 0.176 µM; in assay [8], greater than 100 µM.

`CC(C)OP(=O)(O)c1ncc(-c2ccc(C(F)(F)F)cc2)c(NC2CCCCCC2)n1`: the GI50 in assay [1] was 38.2 µM; in [2], 81.2 µM; in assay [3], greater than 100 µM; in [4] it was greater than 100 µM; in [5], 20.9 µM; in assay [6], greater than 100 µM. In addition, the GI50 in [10] is 51 µM; in assay [8], greater than 100 µM; in assay [9] it was greater than 100 µM. Also, the TGI in assay [1], in [2], in assay [3], in assay [4], in [5] and in assay [6] was greater than 100 µM throughout. For the same compound, the TGI in [10], in assay [8] and in assay [9] was greater than 100 µM each time.

On to `CN(C)CCN1CCc2c([nH]c3ccccc23)C1c1cccnc1` (stereo not drawn), for which the TGI in assay [1], in assay [2], in assay [3], in assay [4], in [5] and in assay [6] was greater than 100 µM each time. For the same compound, the TGI in assay [10], in assay [8] and in [9] was greater than 100 µM in each case.

Consider `CCOC1Oc2ccc(C)cc2C(=O)/C1=C\Nc1ccc(S(N)(=O)=O)cc1` (stereo not drawn), for which the GI50 was 9.48 µM in [1]; 11 µM in assay [2]; 15 µM in [3]; 9.97 µM in assay [4]; 6.21 µM in [5]; 8.92 µM in assay [6]. For the same compound, the GI50 is 24.3 µM in [7], 7.79 µM in assay [10] and 15.3 µM in assay [8]. Besides, the TGI in assay [1] is 27.4 µM; in assay [2], 35.1 µM; in assay [3], greater than 50 µM; in [4], 27.7 µM; in assay [5], 25.2 µM; in [6], 21.3 µM. The TGI in [7] is greater than 50 µM; in [10], 17.3 µM; in assay [8], greater than 50 µM.

Take `Cc1cc(Cl)ccc1NC(=O)C1C(=O)N(c2ccc(Cl)cc2C)C(=O)/C1=N\NC(N)=S` (stereo not drawn): the TGI in [1] is 51.8 µM; in [2] it was 48.5 µM; in [4], greater than 100 µM; in assay [5] it was greater than 100 µM; in assay [6] it was 54.1 µM; in assay [10] it was greater than 100 µM. Besides, the TGI in [8] and in assay [9] was greater than 100 µM in each case.

With `Nc1ncc2ncn(C3CCC(CO)O3)c2n1` (stereo not drawn), the TGI in assay [1], in [2], in [3], in assay [4], in assay [5] and in assay [7] was greater than 100 µM throughout. The TGI in assay [10], in assay [8] and in [9] was greater than 100 µM in each case.

In the case of `O=C1OC(=O)C([Se]c2ccccc2)=C1[Se]c1ccccc1`, the TGI in [1], in assay [2], in assay [3], in assay [4], in assay [5] and in [6] was greater than 100 µM each time. The TGI in assay [10], in assay [8] and in assay [9] was greater than 100 µM throughout.

For `CCc1ccc2c(c1)N(CCO)C1=C(C(=O)OC1)C2c1cc(OC)c(OC)c(OC)c1` (stereo not drawn), the GI50 in assay [1] was 0.142 µM; in [2], 0.207 µM; in assay [3], 0.376 µM; in assay [4] it was 0.184 µM; in assay [5] it was 0.201 µM; in assay [7] it was 0.143 µM. Also, the GI50 in [10] is 0.126 µM; in assay [8], 0.168 µM; in assay [9], 0.197 µM. Also, the TGI in [1] was 0.48 µM; in assay [2], greater than 50 µM; in assay [3], greater than 50 µM; in assay [4] it was 1.22 µM; in [5] it was 42 µM; in [7], 0.469 µM. Moreover, the TGI was 0.581 µM in [10], greater than 50 µM in assay [8] and greater than 50 µM in assay [9].

`CC(=O)Oc1cc2cnc3c4cc(OC(C)=O)c(OC(C)=O)cc4ccc3c2cc1OC(C)=O`: the GI50 was 3.26 µM in [1]; 1.86 µM in assay [2]; 1.01 µM in assay [3]; 1.97 µM in assay [4]; 1.66 µM in [5]; 1.79 µM in [6]. In addition, the GI50 in assay [7] was 4.5 µM; in [8], 0.952 µM; in [9], 2.56 µM. Besides, the TGI is 19.8 µM in assay [1]; 59.4 µM in [2]; 14 µM in assay [3]; 31.2 µM in assay [4]; greater than 100 µM in assay [5]; 8.88 µM in assay [6]. The TGI in assay [7] is 79.9 µM; in assay [8] it was greater than 100 µM; in [9] it was greater than 100 µM.
